What was measured:
[1] = Volume of distribution at steady state in Sprague-Dawley rat plasma at 2 mg/kg, iv by LC-MS/MS analysis; type: ADME, organism-based; settings: Sprague-Dawley, plasma, read-out: Vdss
[2] = Plasma concentration in C57BL/6 mouse at 50 mg/kg, po after 5 hrs by LC-MS/MS analysis; type: ADME, organism-based
CT26 [3] = experiment: Antitumor activity against mouse CT26 cells xenografted in Balb/c mouse assessed as median time to end point at 200 mg/kg, po bid for 22 days; type: functional
CT26 [4] = experiment: Antitumor activity against mouse CT26 cells xenografted in Balb/c mouse assessed as tumor growth delay at 400 mg/kg, po bid for 22 days; type: functional; settings: 528 h, read-out: TGI
CT26 [5] = experiment: Antitumor activity against mouse CT26 cells xenografted in Balb/c mouse assessed as reduction in tumor weight at 100 mg/kg bid for 18 days administered via oral gavage; type: functional; settings: 432 h
Mus musculus = experiment: Decrease in ratio of kynurenine to tryptophan in Balb/c mouse tumor xenografted with CT26 cells at 100 mg/kg bid for 18 days administered via oral gavage after 6 hrs by LC-MS/MS analysis; type: functional
[6] = target: Prostaglandin E2 receptor EP4 subtype (Homo sapiens) (UniProt P35408); experiment: Inhibition of Prostaglandin E2 receptor EP4 (unknown origin) at 10 uM
Homo sapiens [7] = species on record: Homo sapiens; experiment: Inhibition of Platelet-activating factor (unknown origin) at 10 uM
Homo sapiens [8] = species on record: Homo sapiens; experiment: Inhibition of Phorbol ester receptor (unknown origin) at 10 uM
[9] = target: Mu-type opioid receptor (Homo sapiens) (UniProt P35372); experiment: Inhibition of Opiate mu receptor (unknown origin) at 10 uM
[10] = target: Kappa-type opioid receptor (Homo sapiens) (UniProt P41145); experiment: Inhibition of Opiate kappa receptor (unknown origin) at 10 uM
[11] = target: Delta-type opioid receptor (Homo sapiens) (UniProt P41143); experiment: Inhibition of Opiate delta1 receptor (unknown origin) at 10 uM
Homo sapiens [12] = species on record: Homo sapiens; experiment: Inhibition of Nicotinic acetylcholine receptor (unknown origin) at 10 uM
[13] = target: Neuropeptide Y receptor type 1 (Homo sapiens) (UniProt P25929); experiment: Inhibition of Neuropeptide Y1 receptor (unknown origin) at 10 uM
Sequence of Neuropeptide Y receptor type 1 (Homo sapiens) (P25929 whole entry): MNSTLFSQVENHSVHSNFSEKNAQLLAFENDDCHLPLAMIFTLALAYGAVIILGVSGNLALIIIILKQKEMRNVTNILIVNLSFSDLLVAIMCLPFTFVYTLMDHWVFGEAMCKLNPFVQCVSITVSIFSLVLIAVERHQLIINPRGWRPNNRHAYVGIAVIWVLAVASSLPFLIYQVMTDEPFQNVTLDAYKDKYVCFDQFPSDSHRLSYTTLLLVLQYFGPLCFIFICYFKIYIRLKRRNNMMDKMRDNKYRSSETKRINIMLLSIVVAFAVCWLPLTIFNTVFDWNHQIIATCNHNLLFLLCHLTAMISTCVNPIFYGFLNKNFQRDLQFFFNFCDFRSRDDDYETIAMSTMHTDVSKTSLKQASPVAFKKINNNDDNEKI

[14] = target: Muscarinic acetylcholine receptor M2 (Homo sapiens) (UniProt P08172); experiment: Inhibition of Muscarinic M2 receptor (unknown origin) at 10 uM
Sequence of Muscarinic acetylcholine receptor M2 (Homo sapiens) (P08172 whole entry): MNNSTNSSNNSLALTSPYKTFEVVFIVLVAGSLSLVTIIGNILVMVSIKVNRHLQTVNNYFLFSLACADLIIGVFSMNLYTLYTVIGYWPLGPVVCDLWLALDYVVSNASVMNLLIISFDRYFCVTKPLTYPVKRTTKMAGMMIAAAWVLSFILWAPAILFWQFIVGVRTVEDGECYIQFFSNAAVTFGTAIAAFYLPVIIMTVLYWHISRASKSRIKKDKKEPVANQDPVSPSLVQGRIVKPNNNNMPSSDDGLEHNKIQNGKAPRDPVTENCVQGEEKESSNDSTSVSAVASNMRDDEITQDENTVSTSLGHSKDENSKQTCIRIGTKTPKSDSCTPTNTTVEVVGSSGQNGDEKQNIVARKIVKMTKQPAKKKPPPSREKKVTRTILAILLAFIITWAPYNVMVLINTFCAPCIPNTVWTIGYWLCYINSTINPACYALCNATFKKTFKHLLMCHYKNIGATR

[15] = target: Muscarinic acetylcholine receptor M1 (Homo sapiens) (UniProt P11229); experiment: Inhibition of Muscarinic M1 receptor (unknown origin) at 10 uM
Sequence of Muscarinic acetylcholine receptor M1 (Homo sapiens) (P11229 whole entry): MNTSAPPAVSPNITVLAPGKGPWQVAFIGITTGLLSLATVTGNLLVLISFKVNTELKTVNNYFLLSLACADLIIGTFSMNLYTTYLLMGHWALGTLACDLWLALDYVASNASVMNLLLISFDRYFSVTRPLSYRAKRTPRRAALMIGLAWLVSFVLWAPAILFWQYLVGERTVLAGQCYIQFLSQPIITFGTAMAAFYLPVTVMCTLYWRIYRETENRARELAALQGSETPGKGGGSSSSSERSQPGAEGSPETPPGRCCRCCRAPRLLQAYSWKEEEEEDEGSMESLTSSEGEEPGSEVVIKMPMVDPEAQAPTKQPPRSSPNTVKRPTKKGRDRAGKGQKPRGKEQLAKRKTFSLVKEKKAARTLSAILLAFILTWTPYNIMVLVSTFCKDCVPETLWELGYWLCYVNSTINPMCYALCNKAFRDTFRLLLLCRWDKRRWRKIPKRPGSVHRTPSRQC

Homo sapiens [16] = species on record: Homo sapiens; experiment: Inhibition of I2 imidazoline binding site (unknown origin) at 10 uM
[17] = target: Histamine H3 receptor (Homo sapiens) (UniProt Q9Y5N1); experiment: Inhibition of Histamine H3 receptor (unknown origin) at 10 uM
[18] = target: Histamine H2 receptor (Homo sapiens) (UniProt P25021); experiment: Inhibition of Histamine H2 receptor (unknown origin) at 10 uM
[19] = target: Histamine H1 receptor (Homo sapiens) (UniProt P35367); experiment: Inhibition of Histamine H1 receptor (unknown origin) at 10 uM
[20] = target: T1, Glutamate [NMDA] receptor (Homo sapiens) (UniProt Q05586+Q12879+Q13224+O15399+O60391+Q14957+Q8TCU5); experiment: Inhibition of NMDA receptor phencyclidine binding site (unknown origin) at 10 uM
[21] = target: T1, Glutamate [NMDA] receptor (Homo sapiens); experiment: Inhibition of NMDA receptor agonist binding site (unknown origin) at 10 uM
Homo sapiens [22] = species on record: Homo sapiens; experiment: Inhibition of Glutamate kainate receptor (unknown origin) at 10 uM
[23] = target: Glucocorticoid receptor (Homo sapiens) (UniProt P04150); experiment: Inhibition of Glucocorticoid receptor (unknown origin) at 10 uM
Sequence of Glucocorticoid receptor (Homo sapiens) (P04150 whole entry): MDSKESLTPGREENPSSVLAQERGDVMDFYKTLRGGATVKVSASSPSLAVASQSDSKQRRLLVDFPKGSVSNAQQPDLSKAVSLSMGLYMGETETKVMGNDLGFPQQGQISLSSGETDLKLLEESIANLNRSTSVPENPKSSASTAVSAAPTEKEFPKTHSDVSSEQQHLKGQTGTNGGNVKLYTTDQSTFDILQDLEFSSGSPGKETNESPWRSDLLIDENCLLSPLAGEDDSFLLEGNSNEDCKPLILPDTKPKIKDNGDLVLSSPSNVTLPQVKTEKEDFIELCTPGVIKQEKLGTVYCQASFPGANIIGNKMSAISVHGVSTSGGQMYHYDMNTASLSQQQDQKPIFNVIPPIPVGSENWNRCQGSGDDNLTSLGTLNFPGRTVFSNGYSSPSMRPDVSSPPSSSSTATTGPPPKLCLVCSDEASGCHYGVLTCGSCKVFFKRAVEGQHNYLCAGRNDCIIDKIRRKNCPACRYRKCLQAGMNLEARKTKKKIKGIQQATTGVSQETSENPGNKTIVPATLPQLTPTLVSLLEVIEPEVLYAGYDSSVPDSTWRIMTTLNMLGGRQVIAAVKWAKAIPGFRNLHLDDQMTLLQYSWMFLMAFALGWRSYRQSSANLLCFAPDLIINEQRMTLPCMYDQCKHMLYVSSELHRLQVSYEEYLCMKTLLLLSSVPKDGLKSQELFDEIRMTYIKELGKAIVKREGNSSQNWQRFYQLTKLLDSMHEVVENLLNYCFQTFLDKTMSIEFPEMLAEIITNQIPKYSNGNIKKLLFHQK

[24] = target: Cannabinoid receptor 1 (Homo sapiens) (UniProt P21554); experiment: Inhibition of CB1 receptor (unknown origin) at 10 uM
Homo sapiens [25] = species on record: Homo sapiens; experiment: Inhibition of N-type calcium channel (unknown origin) at 10 uM
[26] = target: B1 bradykinin receptor (Homo sapiens) (UniProt P46663); experiment: Inhibition of Bradykinin B1 receptor (unknown origin) at 10 uM
Sequence of B1 bradykinin receptor (Homo sapiens) (P46663 whole entry): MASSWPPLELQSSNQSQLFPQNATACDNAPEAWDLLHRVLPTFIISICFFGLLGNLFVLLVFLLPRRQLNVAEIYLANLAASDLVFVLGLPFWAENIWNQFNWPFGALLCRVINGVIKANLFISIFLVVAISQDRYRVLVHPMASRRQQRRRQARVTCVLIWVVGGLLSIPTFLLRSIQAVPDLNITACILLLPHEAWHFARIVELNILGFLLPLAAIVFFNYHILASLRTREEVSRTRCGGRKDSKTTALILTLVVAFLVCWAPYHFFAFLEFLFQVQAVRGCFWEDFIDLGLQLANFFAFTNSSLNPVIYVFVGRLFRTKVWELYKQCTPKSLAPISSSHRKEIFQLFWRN

[27] = target: Beta-2 adrenergic receptor (Homo sapiens) (UniProt P07550); experiment: Inhibition of Adrenergic beta2 receptor (unknown origin) at 10 uM
Sequence of Beta-2 adrenergic receptor (Homo sapiens) (P07550 whole entry, looked up): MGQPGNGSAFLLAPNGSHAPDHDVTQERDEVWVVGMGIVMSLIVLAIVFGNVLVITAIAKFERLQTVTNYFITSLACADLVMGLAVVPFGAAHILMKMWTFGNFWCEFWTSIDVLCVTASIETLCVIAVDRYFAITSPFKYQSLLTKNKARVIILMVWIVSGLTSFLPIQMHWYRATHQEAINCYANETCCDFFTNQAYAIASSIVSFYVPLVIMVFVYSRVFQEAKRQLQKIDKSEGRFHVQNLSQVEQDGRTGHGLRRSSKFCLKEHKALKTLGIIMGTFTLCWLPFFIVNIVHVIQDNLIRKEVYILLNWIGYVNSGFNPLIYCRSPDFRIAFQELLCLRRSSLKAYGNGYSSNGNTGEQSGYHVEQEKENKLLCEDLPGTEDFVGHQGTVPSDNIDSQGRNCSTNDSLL

[28] = target: Beta-1 adrenergic receptor (Homo sapiens) (UniProt P08588); experiment: Inhibition of Adrenergic beta1 receptor (unknown origin) at 10 uM
Sequence of Beta-1 adrenergic receptor (Homo sapiens) (P08588 whole entry, looked up): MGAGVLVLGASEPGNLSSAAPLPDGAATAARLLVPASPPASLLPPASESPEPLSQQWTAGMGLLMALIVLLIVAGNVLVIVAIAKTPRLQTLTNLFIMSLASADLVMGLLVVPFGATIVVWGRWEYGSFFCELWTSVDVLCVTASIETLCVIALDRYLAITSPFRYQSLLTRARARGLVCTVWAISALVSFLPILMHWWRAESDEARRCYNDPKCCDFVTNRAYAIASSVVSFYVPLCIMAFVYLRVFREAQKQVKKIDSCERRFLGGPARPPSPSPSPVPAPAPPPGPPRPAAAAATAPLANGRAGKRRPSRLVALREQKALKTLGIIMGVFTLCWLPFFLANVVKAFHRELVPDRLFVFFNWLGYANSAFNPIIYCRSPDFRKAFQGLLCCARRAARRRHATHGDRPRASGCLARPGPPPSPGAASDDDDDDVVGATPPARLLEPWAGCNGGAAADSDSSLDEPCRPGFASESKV

[29] = target: Alpha-2A adrenergic receptor (Homo sapiens) (UniProt P08913); experiment: Inhibition of Adrenergic alpha2A receptor (unknown origin) at 10 uM
[30] = target: Alpha-1D adrenergic receptor (Homo sapiens) (UniProt P25100); experiment: Inhibition of Adrenergic alpha1D receptor (unknown origin) at 10 uM
[31] = target: Alpha-1A adrenergic receptor (Homo sapiens) (UniProt P35348); experiment: Inhibition of Adrenergic alpha1A receptor (unknown origin) at 10 uM
Sequence of Alpha-1A adrenergic receptor (Homo sapiens) (P35348 whole entry): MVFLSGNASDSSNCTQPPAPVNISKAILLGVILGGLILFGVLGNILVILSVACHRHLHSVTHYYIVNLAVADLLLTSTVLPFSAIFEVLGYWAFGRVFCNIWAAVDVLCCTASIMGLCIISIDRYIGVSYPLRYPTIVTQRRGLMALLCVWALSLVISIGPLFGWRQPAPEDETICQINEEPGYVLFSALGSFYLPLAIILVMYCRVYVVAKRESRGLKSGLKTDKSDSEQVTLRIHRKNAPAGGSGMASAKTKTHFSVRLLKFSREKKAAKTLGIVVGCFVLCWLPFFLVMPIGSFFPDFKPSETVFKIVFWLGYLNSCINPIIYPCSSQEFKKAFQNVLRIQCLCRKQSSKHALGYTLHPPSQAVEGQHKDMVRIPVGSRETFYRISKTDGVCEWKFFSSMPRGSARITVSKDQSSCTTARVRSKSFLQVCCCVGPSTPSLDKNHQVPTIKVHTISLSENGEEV

[32] = target: Adenosine receptor A3 (Homo sapiens) (UniProt P0DMS8); experiment: Inhibition of Adenosine A3 receptor (unknown origin) at 10 uM
Homo sapiens [33] = species on record: Homo sapiens; experiment: Inhibition of rolipram binding site (unknown origin) at 10 uM
[34] = target: 5-hydroxytryptamine receptor 3A (Homo sapiens) (UniProt P46098); experiment: Inhibition of 5HT3 receptor (unknown origin) at 10 uM
Sequence of 5-hydroxytryptamine receptor 3A (Homo sapiens) (P46098 whole entry): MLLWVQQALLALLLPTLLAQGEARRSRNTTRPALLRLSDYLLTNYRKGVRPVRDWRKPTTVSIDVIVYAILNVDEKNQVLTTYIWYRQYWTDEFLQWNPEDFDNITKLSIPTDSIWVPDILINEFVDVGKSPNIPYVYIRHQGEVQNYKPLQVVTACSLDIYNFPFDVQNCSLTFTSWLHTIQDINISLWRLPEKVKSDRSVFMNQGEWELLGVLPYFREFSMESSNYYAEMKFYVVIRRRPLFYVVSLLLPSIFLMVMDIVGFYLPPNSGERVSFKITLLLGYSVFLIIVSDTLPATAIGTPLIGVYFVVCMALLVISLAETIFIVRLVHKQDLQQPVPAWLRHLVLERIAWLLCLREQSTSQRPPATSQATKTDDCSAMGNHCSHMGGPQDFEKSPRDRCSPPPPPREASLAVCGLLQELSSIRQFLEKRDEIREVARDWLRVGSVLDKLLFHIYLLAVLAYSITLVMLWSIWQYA

Homo sapiens [35] = species on record: Homo sapiens; experiment: Inhibition of Sodium channel site 2 (unknown origin) at 10 uM
[36] = target: Substance-P receptor (Homo sapiens) (UniProt P25103); experiment: Inhibition of Tachykinin NK1 receptor (unknown origin) at 10 uM
[37] = target: Sodium-dependent dopamine transporter (Homo sapiens) (UniProt Q01959); experiment: Inhibition of DAT (unknown origin) at 10 uM
[38] = target: Sodium-dependent noradrenaline transporter (Homo sapiens) (UniProt P23975); experiment: Inhibition of Norepinephrine transporter (unknown origin) at 10 uM
Sequence of Sodium-dependent noradrenaline transporter (Homo sapiens) (P23975 whole entry): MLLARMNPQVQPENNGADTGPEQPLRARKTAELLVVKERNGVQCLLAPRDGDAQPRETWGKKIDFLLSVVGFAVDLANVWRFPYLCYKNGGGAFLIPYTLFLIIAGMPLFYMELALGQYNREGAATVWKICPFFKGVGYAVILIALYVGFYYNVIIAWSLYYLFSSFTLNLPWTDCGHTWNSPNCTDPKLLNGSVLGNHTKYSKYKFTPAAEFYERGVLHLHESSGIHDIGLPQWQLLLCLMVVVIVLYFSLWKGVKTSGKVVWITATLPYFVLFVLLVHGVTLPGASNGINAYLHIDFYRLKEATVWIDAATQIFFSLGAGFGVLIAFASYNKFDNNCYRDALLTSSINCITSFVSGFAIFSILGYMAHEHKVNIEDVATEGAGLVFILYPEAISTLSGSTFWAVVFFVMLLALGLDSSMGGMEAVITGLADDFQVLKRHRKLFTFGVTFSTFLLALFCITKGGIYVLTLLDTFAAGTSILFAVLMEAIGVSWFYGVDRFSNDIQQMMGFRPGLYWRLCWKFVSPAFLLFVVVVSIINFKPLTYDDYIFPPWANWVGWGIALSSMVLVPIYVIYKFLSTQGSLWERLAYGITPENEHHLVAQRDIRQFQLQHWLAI

[39] = target: 5-hydroxytryptamine receptor 1A (Homo sapiens) (UniProt P08908); experiment: Inhibition of 5HT-1A (unknown origin) at 10 uM
[40] = Half life in Sprague-Dawley rat plasma at 10 mg/kg, po by LC-MS/MS analysis; type: ADME, organism-based
[41] = Cmax in Sprague-Dawley rat plasma at 10 mg/kg, po by LC-MS/MS analysis; type: ADME, organism-based; parameters: dose 10 mg/kg, route oral
[42] = Tmax in Sprague-Dawley rat plasma at 10 mg/kg, po by LC-MS/MS analysis; type: ADME, organism-based
[43] = AUC (0 to infinity) in Sprague-Dawley rat plasma at 10 mg/kg, po by LC-MS/MS analysis; type: ADME, organism-based; parameters: dose 10 mg/kg, route oral, time infinity
[44] = target: Indoleamine 2,3-dioxygenase 1 (Homo sapiens, UniProt P14902); experiment: Inhibition of Indoleamine 2,3-dioxygenase in human HeLa cells in presence of L-tryptophan as substrate after 24 hrs in presence of L-tryptophan; type: cell-based
[45] = Half life in Sprague-Dawley rat plasma at 2 mg/kg, iv by LC-MS/MS analysis; type: ADME, organism-based; settings: Sprague-Dawley, plasma

## O=C1Cc2cc(S(=O)(=O)NNc3ccc(Br)cc3)ccc2N1
[1]
  Vd: 1.2 L/kg
[2]
  concentration at 5 h: 2200 nM
CT26 [3]
  Time: 6.4 days
CT26 [4]
  inhibition in vivo at 400 mg/kg: 73%
CT26 [5]
  inhibition in vivo at 100 mg/kg: 64%
Mus musculus
  inhibition in vivo at 100 mg/kg: 83%
[6]
  inhibition: < 50%
Homo sapiens [7]
  inhibition: < 50%
Homo sapiens [8]
  inhibition: < 50%
[9]
  inhibition: < 50%
[10]
  inhibition: < 50%
[11]
  inhibition: < 50%
Homo sapiens [12]
  inhibition: < 50%
[13]
  inhibition: < 50%
[14]
  inhibition: < 50%
[15]
  inhibition: < 50%
Homo sapiens [16]
  inhibition: < 50%
[17]
  inhibition: < 50%
[18]
  inhibition: < 50%
[19]
  inhibition: < 50%
[20]
  inhibition: < 50%
[21]
  inhibition: < 50%
Homo sapiens [22]
  inhibition: < 50%
[23]
  inhibition: < 50%
[24]
  inhibition: < 50%
Homo sapiens [25]
  inhibition: < 50%
[26]
  inhibition: < 50%
[27]
  inhibition: < 50%
[28]
  inhibition: < 50%
[29]
  inhibition: < 50%
[30]
  inhibition: < 50%
[31]
  inhibition: < 50%
[32]
  inhibition: < 50%
Homo sapiens [33]
  inhibition: < 50%
[34]
  inhibition: < 50%
Homo sapiens [35]
  inhibition: < 50%
[36]
  inhibition: < 50%
[37]
  inhibition: < 50%
[38]
  inhibition: 62%
[39]
  inhibition: < 50%
[40]
  half-life: 2.3 h
[41]
  Cmax: 2590 ng/mL
[42]
  Tmax: 0.8 h
[43]
  AUC(0-inf): 7200 ng·h/mL
[44]
  EC50: 67.6 nM
[45]
  half-life: 2.3 h
